{"source": "paper PMC8836143", "about": "“Primary Mode of Action of the Novel Sulfonamide Fungicide against Botrytis cinerea and Field Control Effect on Tomato Gray Mold” (International Journal of Molecular Sciences, 2022)", "key": {"[1]": {"tested_on": "B. cinerea mycelia", "assay": "mycelial electrolyte leakage (conductivity of mycelia suspension)", "assay_type": "cell-based, Botrytis cinerea", "settings": "50 μg/mL; for conductivity of mycelia suspension compared with control mycelia: all treatment times 0-100 h", "procedure": "Mycelial discs (5 mm in diameter) of B. cinerea grown on PDA plates were cut from the colony’s margins and placed in PDA liquid medium with 200 r/min shaking for 3 days. The mycelia in the culture medium were collected and washed three times by sterile distilled water and subsequently, filtered and weighed. A stock solution of L13 and commercial fungicide procymidone as a positive control were diluted with sterile distilled water to 50 μg/mL, respectively. After adding 1.0 g of fresh mycelia into different solutions mentioned above, the conductivities of the solutions were measured using the DDS-11C model conductivity detector at 0, 1, 3, 5, 24, 28, 40, 48, 52, 64, 68, 72, 76, 88, 92, and 100 h after treatment. The experiment was repeated twice with three replicates per treatment."}, "[2]": {"tested_on": "B. cinerea", "set-up": "method as in PMID 18331796", "settings": "cited from earlier work"}, "[3]": {"tested_on": "intact mycelia of B. cinerea", "assay": "mycelial respiration (oxygen consumption of intact mycelia)", "assay_type": "cell-based, Botrytis cinerea", "settings": "25 °C; for R1 (mycelial oxygen uptake post addition of fungicide): R0 173.51; for inhibition at 50 µg/mL / inhibition at 100 µg/mL: Botrytis cinerea, read-out: IR (inhibition of respiration)", "procedure": "Mycelial plugs of B. cinerea from 3 days old colony margins were transferred to conical flasks containing 150 mL of PDA liquid medium for shake culture (25 °C, 150 r/min). After 5 days, mycelia were washed three times with 50 mM potassium phosphate buffer (pH 7.2) and resuspended in 0.1 M phosphate buffer (pH 7.2), containing 2% glucose to afford mycelial suspension at a concentration of 50 mg fresh weight of mycelia per milliliter. The mycelial suspension was treated with 50 and 100 μg/mL of L13 and famoxadone, respectively. All measurements were carried out at 25 ± 1 °C. The ratio of the mycelial oxygen consumption was tested by oxygraphy (DW1, Hansatech Instruments Ltd., England), and the inhibition of respiration was calculated using the following formula:IR = (R0 − R1)/R0 × 100(1)\nIR: inhibition of respiration (%); R0, R1: the ratio of mycelial oxygen uptake pre and post addition of fungicides (nmol O2/min/mg mycelia)."}, "[4]": {"assay": "mutagenesis test", "procedure": "(§1) The acute oral and dermal toxicity test on Wistar rats, eye and skin irritation test on rabbits, and Ames mutagenicity test were commissioned by the Institute for the Control of Chemical Toxicity in Tianjin. The bone marrow cell micronucleus assay and testis chromosomal aberration test of mice were commissioned by Tianjin Center for Disease Control and Prevention. All the toxicological tests were carried out according to the Toxicological Test Methods for Pesticide Registration (GB 15670-1995).\n(§2) Based on the preliminary experiment, Horn’s method was used to determine the acute oral toxicity of L13. The dosage applied for rats was 464, 1000, 2150, and 4640 mg/kg·BW. For the acute dermal toxicity test, the dosage applied for rats was 2000 mg/kg·BW. For the eye and skin irritation test, rabbits with bodyweight from 2.5 to 3.0 kg were used, and 0.1 and […] of L13 was applied to the eyes and skin, respectively. For the Ames mutagenicity test, 0.05–1.0 mg per dish of L13 was applied, and fenaminosulf (50 μg/dish), 2-aminofluorene (20 μg/dish), and 1,8-dihydroxyanthraquinone (50 μg/dish) were used as the positive controls. For the mouse bone marrow cell micronucleus assay, the dosages applied were 165, 82.5, 41.3, and 8.3 mg/kg·BW, and cyclophosphamide (60 mg/kg·BW) was used as a positive control. […]"}, "[5]": {"tested_on": "B. cinerea resistant to diethofencarb (HM-2)", "assay": "greenhouse pot test on tomato, diethofencarb-resistant strain HM-2", "assay_type": "in vivo, Botrytis cinerea", "procedure": "(§3) The B. cinerea strains, which had resistance to carbendazim (HM-1), diethofencarb (HM-2), and iprodione (HM-3) for greenhouse pot studies, were provided by the Institute of Vegetables and Flowers, Chinese Academy of Agricultural Sciences (Beijing, China).\n(§4) The experiments were conducted in the greenhouse of the Institute of Vegetables and Flowers, Chinese Academy of Agricultural Sciences. The maximum and minimum temperatures of the greenhouse were 29 °C and 19 °C, respectively, and the average temperature was 24 °C. B. cinerea strains showing resistance to carbendazim, diethofencarb, and iprodione were cultivated on potato dextrose agar (PDA) plates for 4–5 d at room temperature. Tomato seeds (Ziyu) were sown in ceramic pots (300 mm in diameter) containing 0.6 kg of soil sterilized with formaldehyde (4–5 seeds for each pot). When plants were grown to the five-leaf stage, an aqueous solution of 25% L13 WP (at dilution multiples of 1000 and 2000 times) was sprayed preventatively on the plant surface. […] The severity of the disease was assessed according to a nine-grade classification at 7 d after inoculation, by which time the disease in the untreated control had fully developed."}, "[6]": {"tested_on": "B. cinerea resistant to iprodione (HM-3)", "assay": "greenhouse pot test on tomato, iprodione-resistant strain HM-3", "assay_type": "in vivo, Botrytis cinerea", "procedure": "as §3, §4"}, "[7]": {"tested_on": "rabbits", "assay": "eye irritation test", "assay_type": "in vivo", "procedure": "as §1, §2"}, "[8]": {"tested_on": "intact mycelia of B. cinerea", "set-up": "method as in earlier work", "settings": "cited from earlier work"}, "[9]": {"tested_on": "B. cinerea resistant to carbendazim (HM-1)", "assay": "greenhouse pot test on tomato, carbendazim-resistant strain HM-1", "assay_type": "in vivo, Botrytis cinerea", "procedure": "as §3, §4"}, "[10]": {"tested_on": "B. cinerea on tomatoes", "assay": "field efficacy trials against tomato gray mold", "assay_type": "in vivo, Botrytis cinerea", "settings": "Yuncheng city; 225 g ai ha^−1; over 2 years", "procedure": "The field efficacy trials of L13 against tomato gray mold were conducted in two locations of Yuncheng, Shanxi Province, and Gaocheng, Hebei Province. The experiments were conducted according to the National Agriculture Industry Standard of “Pesticide-guidelines for the field efficacy trials (I)-Fungicides against gray mold of vegetables” [38]. Tomato Jinpeng No. 1 was used as the experimental cultivar. There were six treatments in each trial, and the area of each plot was 5 × 3 m with four replications (24 plots). When tomato plants were grown to the five-leaf stage, an aqueous solution of L13 50% WP at a rate of 450 and 225 g ai ha^−1 was sprayed onto the plants using a hydraulic knapsack electric sprayer (CD-16B, Chaoda Instrument Co., Ltd., Taizhou, China) with a single cone nozzle operating at a typical working pressure 0.3 MPa. Iprodione 50% WP, or iprodione 25% SC at a rate of 225 and 562.5 g ai ha^−1 were used as positive controls. Three applications were conducted at an interval of 7 d. The disease was assessed according to a nine-grade classification 7 d after the last application."}, "[11]": {"tested_on": "Wistar rats", "assay": "acute oral toxicity", "assay_type": "in vivo", "procedure": "as §1, §2"}, "[12]": {"assay": "teratogenesis test"}, "[13]": {"tested_on": "rabbits", "assay": "skin irritation test", "assay_type": "in vivo", "procedure": "as §1, §2"}, "[14]": {"assay": "carcinogenesis test"}, "[15]": {"tested_on": "B. cinerea hyphae", "assay": "SEM and TEM of mycelial morphology and ultrastructure", "assay_type": "cell-based, Botrytis cinerea", "settings": "3 days", "procedure": "B. cinerea mycelial tips (5 mm) from the margins of the actively growing colony on the PDA medium amended with 0, 50, and 100 μg/mL of L13 were cut down after being cultured for 3 days. Then the mycelial tips were treated with 4% glutaraldehyde at 4 °C, then rinsed with 0.1 M phosphate buffer (pH 7.3) and fixed with 1% w/v osmium tetraoxide solution. After being rinsed with 0.1 M phosphate buffer three times, the mycelium block was dehydrated using a series of acetone solutions in the order of concentration: 30%, 50%, 70%, 80%, 90%, and anhydrous acetone. The processes of drying at a critical point, mounting, and gold spraying were completed at last and examined in a scanning electron microscope (S-3400N, Hitachi, Nissei Sanyo, Tokyo, apan) with an accelerating voltage of 18–20 kV.\nThe mycelial blocks were prepared according to the method given in Section 2.3. After dehydrating and embedding in Epon 112, thin sections were cut and double-stained with uranyl acetate and lead citrate. The grids were examined with a JEOL-1230 (JEOL, Tokyo, Japan) transmission electron microscope."}, "[16]": {"settings": "dilution multiple 1000, 187.5 g.ai ha^−1"}}, "data": [{"smiles": "CC12CC1(C)C(=O)N(c1cc(Cl)cc(Cl)c1)C2=O", "note": "(stereo not drawn) [procymidone, reference compound]", "values": [{"measurement": "conductivity of mycelia suspension compared with control mycelia", "setting": "[1]", "value": "greatly increased"}, {"measurement": "EC50 against B. cinerea", "setting": "[2]", "value": 2.45, "unit": "µg/mL"}]}, {"smiles": "C[C@@]1(c2ccc(Oc3ccccc3)cc2)OC(=O)N(Nc2ccccc2)C1=O", "note": "(racemic) [Famoxadone, famoxadone, reference compound]", "values": [{"measurement": "R1 (mycelial oxygen uptake post addition of fungicide)", "setting": "[3]; 50 μg/mL", "value": 115.99, "unit": "nmol O2/g/min"}, {"measurement": "R1 (mycelial oxygen uptake post addition of fungicide)", "setting": "[3]; 100 μg/mL", "value": 68.79, "unit": "nmol O2/g/min"}, {"measurement": "inhibition at 50 µg/mL", "setting": "[3]; 50 μg/mL", "value": 33.2, "unit": "%"}, {"measurement": "inhibition at 100 µg/mL", "setting": "[3]; 100 μg/mL", "value": 60.4, "unit": "%"}]}, {"smiles": "O=C1CCCCC1S(=O)(=O)Nc1ccc(Cl)cc1C(F)(F)F", "note": "(stereo not drawn) [L13, N-(2-trifluoromethyl-4-chlorphenyl)-2-oxocyclohexyl sulfonamide]", "values": [{"measurement": "Mutagenesis", "setting": "[4]", "value": "Negative"}, {"measurement": "electrolyte leakage compared with positive control", "setting": "[1]", "value": "more significant electrolyte leakage from hyphae than procymidone"}, {"measurement": "conductivity of mycelia suspension compared with control mycelia", "setting": "[1]", "value": "greatly increased"}, {"measurement": "R1 (mycelial oxygen uptake post addition of fungicide)", "setting": "[3]; 50 μg/mL", "value": 169.93, "unit": "nmol O2/g/min"}, {"measurement": "R1 (mycelial oxygen uptake post addition of fungicide)", "setting": "[3]; 100 μg/mL", "value": 143.48, "unit": "nmol O2/g/min"}, {"measurement": "inhibition at 50 µg/mL", "setting": "[3]; 50 μg/mL", "value": 2.15, "unit": "%"}, {"measurement": "inhibition at 100 µg/mL", "setting": "[3]; 100 μg/mL", "value": 17.4, "unit": "%"}, {"measurement": "Control Effect", "setting": "[5]; [16]", "value": 92.61, "unit": "%"}, {"measurement": "Control Effect", "setting": "[6]; [16]", "value": 78.27, "unit": "%"}, {"measurement": "Eye irritation", "setting": "[7]", "value": "No irritation"}, {"measurement": "content of DNA and polysaccharide in intact mycelia", "setting": "[8]", "value": "reduce the content of the DNA and polysaccharide"}, {"measurement": "Control Effect", "setting": "[9]; [16]", "value": 81.36, "unit": "%"}, {"measurement": "EC50 against B. cinerea", "setting": "[2]", "value": 2.12, "unit": "µg/mL"}, {"measurement": "control effect against B. cinerea on tomatoes", "setting": "[10]", "value": "72–76%"}, {"measurement": "Acute oral LD50", "setting": "[11]; female", "value": 2150, "unit": "mg/kg·BW"}, {"measurement": "Acute oral LD50", "setting": "[11]; male", "value": 1470, "unit": "mg/kg·BW"}, {"measurement": "Teratogenesis", "setting": "[12]", "value": "Negative"}, {"measurement": "Skin irritation", "setting": "[13]", "value": "No irritation"}, {"measurement": "Carcinogenesis", "setting": "[14]", "value": "Negative"}, {"measurement": "TEM ultrastructure of hyphae", "setting": "[15]; PDA with 50 μg/mL", "value": "cell wall exhibited a decomposition trend"}, {"measurement": "TEM ultrastructure of hyphae", "setting": "[15]; PDA with 100 μg/mL", "value": "cell wall decomposition"}]}, {"smiles": "CC(C)NC(=O)N1CC(=O)N(c2cc(Cl)cc(Cl)c2)C1=O", "note": "[iprodione, reference compound]", "values": [{"measurement": "Control Effect", "setting": "[6]; dilution multiple 1000, 375 g.ai ha^−1", "value": 2.36, "unit": "%"}]}, {"smiles": "CCOc1ccc(NC(=O)OC(C)C)cc1OCC", "note": "[diethofencarb, reference compound]", "values": [{"measurement": "Control Effect", "setting": "[5]; dilution multiple 1400, 267.9 g.ai ha^−1", "value": 76.36, "unit": "%"}]}, {"smiles": "COC(=O)Nc1nc2ccccc2[nH]1", "note": "[carbendazim, reference compound]", "values": [{"measurement": "Control Effect", "setting": "[9]; dilution multiple 500, 750 g.ai ha^−1", "value": 29.00, "unit": "%"}]}]}
